From patent US11091497B2, “Pyrano[3,4-b]pyrazine kappa opioid receptor ligands for treating addiction, pruritus, pain, and inflammation” (The Rockefeller University, priority 2017, dated 2021) come the findings set out here.

Experiment [1] deals with T1, kappa opioid receptor (PathHunter U2OS hOPRK1 membranes) (Homo sapiens, UniProt P41145).
T1 construct: host or cells: U2OS (PathHunter U2OS hOPRK1 β-arrestin cell line)
The experiment can be described thus: Tritiated U69,593 binding for KOP-R membranes. Here is the method: Tritiated U69,593 binding for KOP-R membranes; tritiated DAMGO binding for MOP-R membranes; and tritiated DPDPE binding for DOP-R membranes:
(§1) Membranes from cells stably expressing kappa, mu or delta opioid receptor constructs (PathHunter U2OS hOPRK1, CHO-K1 rOPRM1 and CHO-K1 OPRD1 β-arrestin cell line, DiscoverX, Fremont, Calif., USA) were used. Cells were scraped from tissue culture plates, homogenized with a tissue tearor homogenizer in membrane buffer (10 mM Tris, 100 mM NaCl, and 1 mM EDTA; pH 7.4), and centrifuged at 20,000 g for 30 minutes at 4° C. and frozen at −80° C. until use. Prior to use, the pellets were resuspended in binding buffer (50 mm Tris, 100 mm NaCl, pH 7.4), homogenized with a dounce homogenizer and […] incubated with 1.0 nM of the appropriate tritiated ligand ([^3H]U69,593, [^3H]DAMGO or [^3H]DPDPE for kappa, mu or delta binding, respectively) and the appropriate concentration of compound for 60 minutes at 30° C. Membranes with bound tritiated ligand were collected on Whatman GF/B filter paper (Brandel, Gaithersburg, Md., USA) utilizing a Brandel harvester. Bound tritiated ligand was quantified using a TriCarb-2900TR scintillation counter (Packard, Downers Grove, Ill., USA) following addition of 4 ml ReadySafe scintillation fluid (Beckman Coulter, Indianapolis, Ind., USA). Compiled data for each compound was normalized to the maximal binding in the absence of compound, with non-specific binding subtracted. Curve fitting was done in Microcal Origin 17.0 software using logistic sigmoidal fit, to determine IC50. GTPgammaS Membranes from U2OS cells stably expressing human kappa opioid receptors were used. Cells were scraped from tissue culture plates, homogenized with a tissue tearor homogenizer in membrane buffer (10 mM Tris, 100 mM NaCl, and 1 mM EDTA; pH 7.4), and centrifuged at 20,000 g for 30 minutes at 4° C. and frozen at −80° C. until use. Prior to use, the pellets were resuspended in assay buffer (50 mm Tris, 100 mm NaCl, 5 mM MgCl2, and 1 mM EDTA; pH 7.4) and homogenized with a dounce homogenizer and 50 μg incubated with 0.1 nM [35 S]GTPγS, 10 nM GDP, and the appropriate concentration of agonist for 20 minutes at 30° C. To test inhibition, all samples were incubated with 100 nM U69,593 as well as the appropriate concentration of compound. Membranes with bound [35 S]GTPγS were collected on Whatman GF/B filter paper (Brandel, Gaithersburg, Md., USA) utilizing a Brandel harvester. Bound [35 S]GTPγS was quantified using a TriCarb-2900TR scintillation counter (Packard, Downers Grove, Ill., USA) following addition of 4 mL ReadySafe scintillation fluid (Beckman Coulter, Indianapolis, Ind., USA). […] NA indicates not applicable. For each compound, curve fitting was done in Microcal Origin 17.0 software using logistic sigmoidal fit, to determine EC50 and maximal percent stimulation, which in turn was normalized to the maximal percent stimulation of the test full agonist compound U69,593 to determine % efficacy. β2-Arrestin Experiments were conducted using the PathHunter Detection Kit obtained from DiscoverX. Cells stably expressing kappa, mu or delta opioid receptor constructs (PathHunter U2OS hOPRK1, CHO-K1 rOPRM1 and CHO-K1 OPRD1 β-arrestin cell line, DiscoverX, Fremont, Calif., USA) were plated in 96- or 384-well plates. Cells were stimulated with the compounds for 90 minutes at 37° C. To test inhibition, all samples were incubated with 100 nM U69,593 as well as the appropriate concentration of compound. Cells were then incubated for 60 minutes in the presence of galoctosidase substrate, yielding chemiluminescent product. Chemiluminescence was measured using a Synergy Neo microplate reader (BioTek, Winooski, Vt., USA). Antagonism assays were done in the same manner, in the presence of 300 nM U69,593, 1 μM DAMGO or 1 μM DPDPE for KOP-R, MOP-R or DOP-R assays, respectively. […] NA indicates not applicable. […]

The target in experiment [2] is T2, human kappa opioid receptors (Homo sapiens, UniProt P41145).
T2 construct: expressed in transfected cells; host or cells: U2OS
T2 sequence (P41145 whole entry): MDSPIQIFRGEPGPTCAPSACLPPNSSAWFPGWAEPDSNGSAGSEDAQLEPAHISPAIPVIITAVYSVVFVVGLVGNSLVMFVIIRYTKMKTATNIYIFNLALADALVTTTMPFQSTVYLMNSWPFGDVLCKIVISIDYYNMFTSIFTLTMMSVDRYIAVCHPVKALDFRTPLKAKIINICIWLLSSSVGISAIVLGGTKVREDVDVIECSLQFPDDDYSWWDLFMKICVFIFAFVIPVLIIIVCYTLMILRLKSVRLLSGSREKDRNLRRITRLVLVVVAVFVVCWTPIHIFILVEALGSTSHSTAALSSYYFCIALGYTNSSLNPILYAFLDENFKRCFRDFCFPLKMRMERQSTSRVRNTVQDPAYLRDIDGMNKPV
In words: [35S]GTPγS stimulation, membranes from U2OS cells. The class given is biochemical. To be noted: for Emax: read-out: GTPγS stimulation % efficacy. As to the method:
Membranes from cells stably expressing kappa, mu or delta opioid receptor constructs (PathHunter U2OS hOPRK1, CHO-K1 rOPRM1 and CHO-K1 OPRD1 β-arrestin cell line, DiscoverX, Fremont, Calif., USA) were used. Cells were scraped from tissue culture plates, homogenized with a tissue tearor homogenizer in membrane buffer (10 mM Tris, 100 mM NaCl, and 1 mM EDTA; pH 7.4), and centrifuged at 20,000 g for 30 minutes at 4° C. and frozen at −80° C. until use. Prior to use, the pellets were resuspended in binding buffer (50 mm Tris, 100 mm NaCl, pH 7.4), homogenized with a dounce homogenizer and […] incubated with 1.0 nM of the appropriate tritiated ligand ([^3H]U69,593, [^3H]DAMGO or [^3H]DPDPE for kappa, mu or delta binding, respectively) and the appropriate concentration of compound for 60 minutes at 30° C. Membranes with bound tritiated ligand were collected on Whatman GF/B filter paper (Brandel, Gaithersburg, Md., USA) utilizing a Brandel harvester. Bound tritiated ligand was quantified using a TriCarb-2900TR scintillation counter (Packard, Downers Grove, Ill., USA) following addition of 4 ml ReadySafe scintillation fluid (Beckman Coulter, Indianapolis, Ind., USA). Compiled data for each compound was normalized to the maximal binding in the absence of compound, with non-specific binding subtracted. Curve fitting was done in Microcal Origin 17.0 software using logistic sigmoidal fit, to determine IC50. GTPgammaS Membranes from U2OS cells stably expressing human kappa opioid receptors were used. Cells were scraped from tissue culture plates, homogenized with a tissue tearor homogenizer in membrane buffer (10 mM Tris, 100 mM NaCl, and 1 mM EDTA; pH 7.4), and centrifuged at 20,000 g for 30 minutes at 4° C. and frozen at −80° C. until use. Prior to use, the pellets were resuspended in assay buffer (50 mm Tris, 100 mm NaCl, 5 mM MgCl2, and 1 mM EDTA; pH 7.4) and homogenized with a dounce homogenizer and 50 μg incubated with 0.1 nM [35 S]GTPγS, 10 nM GDP, and the appropriate concentration of agonist for 20 minutes at 30° C. To test inhibition, all samples were incubated with 100 nM U69,593 as well as the appropriate concentration of compound. Membranes with bound [35 S]GTPγS were collected on Whatman GF/B filter paper (Brandel, Gaithersburg, Md., USA) utilizing a Brandel harvester. Bound [35 S]GTPγS was quantified using a TriCarb-2900TR scintillation counter (Packard, Downers Grove, Ill., USA) following addition of 4 mL ReadySafe scintillation fluid (Beckman Coulter, Indianapolis, Ind., USA). […] For each compound, curve fitting was done in Microcal Origin 17.0 software using logistic sigmoidal fit, to determine EC50 and maximal percent stimulation, which in turn was normalized to the maximal percent stimulation of the test full agonist compound U69,593 to determine % efficacy. β2-Arrestin Experiments were conducted using the PathHunter Detection Kit obtained from DiscoverX. Cells stably expressing kappa, mu or delta opioid receptor constructs (PathHunter U2OS hOPRK1, CHO-K1 rOPRM1 and CHO-K1 OPRD1 β-arrestin cell line, DiscoverX, Fremont, Calif., USA) were plated in 96- or 384-well plates. Cells were stimulated with the compounds for 90 minutes at 37° C. To test inhibition, all samples were incubated with 100 nM U69,593 as well as the appropriate concentration of compound. Cells were then incubated for 60 minutes in the presence of galoctosidase substrate, yielding chemiluminescent product. Chemiluminescence was measured using a Synergy Neo microplate reader (BioTek, Winooski, Vt., USA). Antagonism assays were done in the same manner, in the presence of 300 nM U69,593, 1 μM DAMGO or 1 μM DPDPE for KOP-R, MOP-R or DOP-R assays, respectively.
A general note: Binding of GTPγS marks nucleotide exchange on a G protein.

For experiment [3], the target named is T3, kappa opioid receptor (PathHunter U2OS hOPRK1 β-arrestin cell line) (Homo sapiens, UniProt P41145).
T3 construct: host or cells: U2OS (PathHunter U2OS hOPRK1 β-arrestin cell line)
T3 sequence (P41145 whole entry): as above
The experiment can be described thus: β-arrestin coupling (PathHunter Detection Kit). The format is cell-based. To be noted: for Emax at 10 µM: U2OS. As to the method: as §1

Where [4] appears, read: read-out: β-arrestin coupling % efficacy at 10 μM.
Where [5] appears, read: 1.0 nM [3H]U69,593, 60 minutes at 30° C., read-out: Binding IC50.

Like-named read-outs stand apart in the source and are kept apart here.

T1 sequence (P41145 whole entry): as above

A word on the IC50: it is the concentration that gives 50% inhibition. The EC50 is the concentration at which the effect is half-maximal. As for `O=C(Cc1ccc(Cl)c(Cl)c1)N1CCN(Cc2ccccc2)[C@@H]2COC[C@H](N3CCCC3)[C@H]21` (racemic) [Example 5A53, 1-[4-benzyl-8-pyrrolidin-1-yl-3,4a,5,7,8,8a-hexahydro-2H-pyrano(3,4-b)pyrazin-1-yl]-2-(3,4-dichlorophenyl)ethanone], the IC50 in experiment [1] was 40 nM. Moreover, in experiment [2], the EC50 amounted to 12 nM and the Emax was determined as 82%. Besides, in experiment [3] (setting [4]), the Emax at 10 µM was 80%.
For `O=C(Cc1ccc(Cl)c(Cl)c1)N1CCN(CC2CCCC2)[C@@H]2COC[C@H](N3CCCC3)[C@H]21` (racemic) [Example 5A54] the same measures were 73 nM, 31 nM, 73% and 20%.
As for `O=C(Cc1ccc(Cl)c(Cl)c1)N1CCN(CC2CCC2)[C@@H]2COC[C@H](N3CCCC3)[C@H]21` (racemic) [Example 5A55], the IC50 in experiment [1] is 57 nM. In experiment [2], the EC50 is 21 nM and the Emax amounted to 67%. The Emax at 10 µM in experiment [3] (setting [4]) turned out to be 40%.
For `Cc1ccc(CC(=O)N2CCN[C@@H]3COC[C@H](N4CCCC4)[C@H]32)cc1Cl` (racemic) [Example 5A57] the same measures were 42 nM, 62 nM, 98% and 20%.
As to `Cc1cc(CC(=O)N2CCN[C@@H]3COC[C@H](N4CCCC4)[C@H]32)ccc1Cl` (racemic) [Example 5A58], the IC50 in experiment [1] (setting [5]) was found to be 116 nM. Besides, in experiment [2], the EC50 turned out to be 261 nM and the Emax worked out at 161%. Also, in experiment [3] (setting [4]), the Emax at 10 µM amounted to 20%.
On to `CCN(CC)[C@H]1COC[C@H]2NCCN(C(=O)Cc3ccc(Cl)c(Cl)c3)[C@@H]21` (racemic) [Example 5A64], for which the IC50 in experiment [1] (setting [5]) worked out at 1920 nM. Moreover, in experiment [2], the EC50 worked out at 2120 nM and the Emax was 68%. Further, the “β-arrestin coupling % efficacy” value in experiment [3] (maximal, normalized to U69,593, No stim = no stimulation at highest dose tested, 10,000 nM) is given as “No stim”.
For `O=C(Cc1ccc(Cl)c(F)c1)N1CCN[C@@H]2COC[C@H](N3CCCC3)[C@H]21` (racemic) [Example 5A65], the IC50 in experiment [1] turned out to be 68 nM. For the same compound, in experiment [2] (20 minutes at 30° C., read-out: GTPγS stimulation EC50), the EC50 is 136 nM. The Emax in experiment [2] was found to be 121%. The Emax at 10 µM in experiment [3] (setting [4]) turned out to be 20%.
Consider `O=C(Cc1ccc(Cl)cc1)N1CCN[C@@H]2COC[C@H](N3CCCC3)[C@H]21` (racemic) [Example 5A66], for which, in experiment [1] (setting [5]), the IC50 came to 456 nM. For the same compound, in experiment [2], the EC50 was found to be 566 nM and the Emax was determined as 140%. Also, the Emax at 10 µM in experiment [3] (setting [4]) was found to be 20%.
Consider `COC(=O)N1CCN(C(=O)Cc2ccc(Cl)c(Cl)c2)[C@H]2[C@H]1COC[C@@H]2N1CCCC1` (racemic) [Example 5A67], for which, in experiment [1], the IC50 turned out to be 41 nM. Moreover, the EC50 is 12 nM in experiment [2] and 5200 nM in experiment [3]. Also, the Emax in experiment [2] stood at 85%. Moreover, the Emax at 10 µM in experiment [3] (read-out: β-arrestin coupling % efficacy) was 85%.
With `O=C(Cc1ccc(Cl)c(Cl)c1)N1CCN(CC2CC2)[C@@H]2COC[C@H](N3CCCC3)[C@H]21` (racemic) [Example 5A70], the IC50 in experiment [1] was found to be 71 nM. In experiment [2], the EC50 was determined as 19 nM and the Emax was found to be 90%. Also, the Emax at 10 µM in experiment [3] (setting [4]) came out at 50%.
The matching figures for `CCCN1CCN(C(=O)Cc2ccc(Cl)c(Cl)c2)[C@H]2[C@H]1COC[C@@H]2N1CCCC1` (racemic) [Example 5A72]: 26 nM, 12 nM, 111% and 50%.
With `O=C(Cc1cccc(Cl)c1)N1CCN[C@@H]2COC[C@H](N3CCCC3)[C@H]21` (single isomer, unassigned) [Example 5A24A], the half-maximal inhibitory concentration (IC50) in experiment [1] (setting [5]) worked out at 463 nM. Also, in experiment [2], the EC50 came out at 384 nM and the Emax was 115%. Also, the Emax at 10 µM in experiment [3] (setting [4]) was found to be 0%.
